Assay results as given in patent publication US6531485B2, “Prostaglandin agonists” (priority 1997, dated 2003).

Key:
[1] = tested on: wild type 293S cells; test: Kidney regeneration assay: BMP-7 expression by Northern blot in wild type 293S cells; format: cell-based, human; conditions: parental 293S cell line, 10^-6M, RNA at 8, 16 and 24 hours
Experimental: (§1) Methods: 293S and EP2 293S cells are grown in Dulbecco's Modified Egale medium (DMEM, Gibco, BRL; Gaithersburg, Md.). […] Cells are harvested and RNA is extracted at 8, 16 and 24 hours. Northern blot analysis of total […] is carried out by probing the blots with ^32P-labeled BMP-7 probe. The blots are normalized for RNA loading by hybridization with ^32P-labeled 18s ribosomal RNA probe. […] Given the known role of BMP-7 in kidney regeneration and the ability of an prostaglandin agonist to induce BMP-7 expression in 293S kidney cells in a time and receptor specific manner indicates a role for prostaglandin agonist in kidney regeneration.

[2] = tested on: 293S cells transfected with EP2; test: Kidney regeneration assay: BMP-7 expression by Northern blot in EP2 293S cells; format: cell-based, human; conditions: 10^-6M, RNA at 8, 16 and 24 hours
Experimental: as §1

CCCCC[C@H](O)/C=C/[C@H]1[C@H](O)CC(=O)[C@@H]1C/C=C\CCCC(=O)O [PGE2, Prostaglandin E2]
induction of expression of BMP-7 [1]: generally not observed | induction of expression of BMP-7 [2]: induce the expression of BMP-7 in the EP2 293S cells in a time dependent manner
